Reference: US20100249184A1, “INDUCTION AND/OR MAINTENANCE OF TUMOR DORMANCY BY DISRUPTION OF UROKINASE PLASMINOGEN ACTIVATOR RECEPTOR-INTEGRIN INTERACTION” (MOUNT SINAI SCHOOL OF MEDICINE, priority 2007, published 2010)

System: T-ELK:GFP cells
Assay: ERK activation reporter (GFP, FACS) in T-ELK:GFP cells
Format: cell-based, human
Settings: 38 hrs, untreated 7.4%
Excerpt: FIGS. 6A-E show ERK activation and growth in vivo. In FIG. 6A, HEK293 and D-Hep3 cells transfected with uPAR^wt produces stronger activation of ERK than cells transfected with uPAR^S245A or with vector (top and middle panels); HEK293, and D-HEp3 cells, transiently transfected with pcDNA3.1 vector, or with an expression construct for uPAR^wt or uPAR^S245A lysed 48 hrs later and analyzed by Western blotting for phospho-ERK (FIG. 6A, top panels) and ERK 1/2 (FIG. 6A, middle panels) with specific antibodies. The bands were scanned with NIH Image and plotted. The ratio of phospho-ERK to ERK was calculated and expressed as a fraction of the ratio of pcDNA3.1 transfected cells. In FIG. 6A (bottom panels), uPAR^wt and uPAR^S245A expression was determined by Western blotting. […] D-HEp3 cells transfected with vector, or uPAR^wt or uPAR^S245A were detached with EDTA 36 hrs after transfection and 7×10^5 cells in 30 μl PBS were inoculated onto chorioallantoic membranes (“CAMs”) of 10-day old chick embryos. Each sample was inoculated onto 4 CAMs. The CAMs were excised 4 days later and the number of tumor cells was determined as in the Examples. The bars show mean and standard deviation. Paired t-test vector/uPAR^S245A p=0.76, vector/uPAR^wt p=0.0005, uPAR^S245/uPAR^wt p=0.0002. Inset: uPAR expression detected by Western blot with R2 antibody. In FIG. 6C, peptide 240-248, but not peptide 17-24, down regulates P-ERK level. […] The cells were lysed and the lysates were analyzed for P-ERK (FIG. 6C, upper panel) and total ERK (FIG. 6C, lower panel) by Western blotting. […] The cells were processed as in FIG. 6C, except that the bands were scanned by NIH Image the P-ERK/ERK ratio was calculated. […] The cells were detached and analyzed for GFP in FACS Canto using FACSDiva software. […]
[…] The cells were detached and analyzed for GFP by FACS analysis using FACS Canto (Becton Dickinson, Calif.) and FACSDiva software. […] Concentration dependence of P-ERK inhibition was analyzed by scanning P-ERK and ERK bands with NIH-Image and expressing their ratios as % of the ratio in untreated control (T-HEp3) cells. […]

peptide 17-24: synthetic uPAR-derived peptide, domain I amino acid 17-24: CALGQDLC (SEQ ID NO:5); negative control [reference compound]
GFP-positive cells (% of total) (25 μM peptide): 6.2%

peptide 240-248: synthetic uPAR-derived peptide, domain III residues 240-248: GCATASMCQ (SEQ ID NO:9)
GFP-positive cells (% of total) (5 μM peptide): 1.6%
GFP-positive cells (% of total) (25 μM peptide): 0.7%
